Experimental data published in ChEMBL document CHEMBL1121869, “Potential inhibitors of L-asparagine biosynthesis. 5. Electrophilic amide analogues of (S)-2,3-diaminopropionic acid” (J Med Chem, 1981).

Assays:
[1] = target: T1, Asparagine synthetase [glutamine-hydrolyzing] (Rattus norvegicus) (UniProt P49088); test: Inhibition of asparagine synthetase from partially purified rat Novikoff hepatoma at a final concentration of 2 mM
T1 sequence (whole entry): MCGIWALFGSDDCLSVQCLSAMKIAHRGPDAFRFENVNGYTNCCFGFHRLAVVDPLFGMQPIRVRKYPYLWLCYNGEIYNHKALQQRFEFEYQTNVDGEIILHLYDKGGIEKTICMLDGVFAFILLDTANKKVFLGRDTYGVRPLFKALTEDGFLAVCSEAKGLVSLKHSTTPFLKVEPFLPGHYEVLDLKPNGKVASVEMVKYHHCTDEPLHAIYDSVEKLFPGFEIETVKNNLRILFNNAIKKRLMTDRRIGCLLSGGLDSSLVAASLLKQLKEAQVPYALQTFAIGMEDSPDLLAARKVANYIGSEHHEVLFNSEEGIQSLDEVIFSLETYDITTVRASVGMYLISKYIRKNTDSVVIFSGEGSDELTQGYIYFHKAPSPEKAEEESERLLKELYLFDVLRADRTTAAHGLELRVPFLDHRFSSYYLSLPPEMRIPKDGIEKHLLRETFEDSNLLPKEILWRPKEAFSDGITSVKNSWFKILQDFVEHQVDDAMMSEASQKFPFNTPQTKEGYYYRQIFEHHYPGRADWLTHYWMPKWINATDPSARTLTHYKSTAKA

[2] = target: T1, Asparagine synthetase [glutamine-hydrolyzing] (Rattus norvegicus); test: Inhibition of asparagine synthetase from partially purified rat Novikoff hepatoma at a final concentration of 1 mM with
TsH1 [3] = test: Compound was evaluated for the growth inhibition of TsH1 cells in an enriched eagles minimal essential medium, medium lacking aspartic acid and asparagine at a concentration of 0.01 mg/mL (0.04 mM); Heavy growth; format: functional, cell-based; conditions: Cricetulus griseus
TsH1 [4] = test: Compound was evaluated for the growth inhibition of TsH1 cells in an enriched eagles minimal essential medium, medium lacking aspartic acid and asparagine at a concentration of 0.04 mg/mL (0.19 mM); Heavy growth; format: functional, cell-based; conditions: Cricetulus griseus
TsH1 [5] = test: Compound was evaluated for the growth inhibition of TsH1 cells in an enriched eagles minimal essential medium, complete medium at a concentration of 0.01 mg/mL (0.04 mM); Heavy growth; format: functional, cell-based; conditions: Cricetulus griseus
TsH1 [6] = test: Compound was evaluated for the growth inhibition of TsH1 cells in an enriched eagles minimal essential medium, complete medium at a concentration of 0.2 mg/mL (0.93 mM); Heavy growth; format: functional, cell-based; conditions: Cricetulus griseus
TsH1 [7] = test: Compound was evaluated for the growth inhibition of TsH1 cells in an enriched eagles minimal essential medium, medium lacking asparagine at a concentration of 0.2 mg/mL (0.93 mM); Cells dead; format: functional, cell-based; conditions: Cricetulus griseus
TsH1 [8] = test: Compound was evaluated for the growth inhibition of TsH1 cells in an enriched eagles minimal essential medium, medium lacking asparagine at a concentration of 1.0 mg/mL (4.65 mM); Cells dead; format: functional, cell-based; conditions: Cricetulus griseus
TsH1 [9] = test: Compound was evaluated for the growth inhibition of TsH1 cells in an enriched eagles minimal essential medium, medium lacking aspartic acid at a concentration of 0.01 mg/mL (0.04 mM); Heavy growth; format: functional, cell-based; conditions: Cricetulus griseus
TsH1 [10] = test: Compound was evaluated for the growth inhibition of TsH1 cells in an enriched eagles minimal essential medium, medium lacking asparagine at a concentration of 0.01 mg/mL (0.04 mM); Heavy growth; format: functional, cell-based; conditions: Cricetulus griseus
TsH1 [11] = test: Compound was evaluated for the growth inhibition of TsH1 cells in an enriched eagles minimal essential medium, complete medium at a concentration of 0.04 mg/mL (0.19 mM); Heavy growth; format: functional, cell-based; conditions: Cricetulus griseus
TsH1 [12] = test: Compound was evaluated for the growth inhibition of TsH1 cells in an enriched eagles minimal essential medium, complete medium at a concentration of 1.0 mg/mL (4.65 mM); Medium growth; format: functional, cell-based; conditions: Cricetulus griseus
TsH1 [13] = test: Compound was evaluated for the growth inhibition of TsH1 cells in an enriched eagles minimal essential medium, medium lacking aspartic acid and asparagine at a concentration of 0.2 mg/mL (0.93 mM); Cells dead; format: functional, cell-based; conditions: Cricetulus griseus
TsH1 [14] = test: (§1) Compound was evaluated for the growth inhibition of TsH1 cells in an enriched eagles minimal essential medium, medium lacking asparagine at a concentration of 0.04 mg/mL (0.19 mM); Heavy growth; format: functional, cell-based; conditions: Cricetulus griseus
TsH1 [15] = test: Compound was evaluated for the growth inhibition of TsH1 cells in an enriched eagles minimal essential medium, medium lacking aspartic acid and asparagine at a concentration of 1.0 mg/mL (4.65 mM); Cells dead; format: functional, cell-based; conditions: Cricetulus griseus
TsH1 [16] = test: Compound was evaluated for the growth inhibition of TsH1 cells in an enriched eagles minimal essential medium, medium lacking aspartic acid at a concentration of 0.2 mg/mL (0.93 mM); Heavy growth; format: functional, cell-based; conditions: Cricetulus griseus
TsH1 [17] = test: Compound was evaluated for the growth inhibition of TsH1 cells in an enriched eagles minimal essential medium, medium lacking aspartic acid at a concentration of 1.0 mg/mL (4.65 mM); Medium growth; format: functional, cell-based; conditions: Cricetulus griseus
TsH1 [18] = test: as §1; format: functional, cell-based; conditions: Cricetulus griseus; remark: listed apart in the source

NCC(N)C(=O)O (centres undefined)
inhibition [1]: 0%

NC(CNC(=O)C(Cl)Cl)C(=O)O (centres undefined)
inhibition [2]: 18.7% | Growth inhibition (TsH1 [3]): Heavy Growth | Growth inhibition (TsH1 [4]): Heavy Growth | Growth inhibition (TsH1 [5]): Heavy Growth | Growth inhibition (TsH1 [6]): Heavy Growth | Growth inhibition (TsH1 [7]): Not toxic | Growth inhibition (TsH1 [8]): Not toxic | Growth inhibition (TsH1 [9]): Heavy Growth | Growth inhibition (TsH1 [10]): Heavy Growth | Growth inhibition (TsH1 [11]): Heavy Growth | Growth inhibition (TsH1 [12]): Medium Growth | Growth inhibition (TsH1 [13]): Not toxic | Growth inhibition (TsH1 [14]): Heavy Growth | Growth inhibition (TsH1 [15]): Not toxic | Growth inhibition (TsH1 [16]): Heavy Growth | Growth inhibition (TsH1 [17]): Medium Growth | Growth inhibition (TsH1 [18]): Heavy Growth

CC(=O)NCC(N)C(=O)O (centres undefined)
inhibition [1]: 0%
